The record followed here is patent US10329295B2, “Pyrrolotriazine inhibitors of IRAK4 activity” (MERCK SHARP & DOHME CORP., priority 2015, dated 2019).

Where a name gives a salt, the structure may show the parent alone.

In this experiment the target is GST tagged IRAK4 (Homo sapiens (Human), UniProt Q9NWZ3). Nature of the experiment: IRAK4 Kinase Assay (IMAP fluorescence polarization). In kind it is biochemical. Conditions: 0.5 nM GST tagged IRAK4, 100 μM ATP, 30 minutes at 25° C. The method in brief: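 Reactions contained 0.5 nM GST-IRAK4, 100 nM fluorescent peptide substrate and 100 μM ATP in 10 mM Tris-HCl pH 7.2 with 1 mM MgCl2, and were started with ATP. After 30 minutes at 25° C they were stopped with IMAP reagent. Substrate phosphorylation was read as the change in fluorescence polarization.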
Chain of GST tagged IRAK4 (Q9NWZ3 whole entry): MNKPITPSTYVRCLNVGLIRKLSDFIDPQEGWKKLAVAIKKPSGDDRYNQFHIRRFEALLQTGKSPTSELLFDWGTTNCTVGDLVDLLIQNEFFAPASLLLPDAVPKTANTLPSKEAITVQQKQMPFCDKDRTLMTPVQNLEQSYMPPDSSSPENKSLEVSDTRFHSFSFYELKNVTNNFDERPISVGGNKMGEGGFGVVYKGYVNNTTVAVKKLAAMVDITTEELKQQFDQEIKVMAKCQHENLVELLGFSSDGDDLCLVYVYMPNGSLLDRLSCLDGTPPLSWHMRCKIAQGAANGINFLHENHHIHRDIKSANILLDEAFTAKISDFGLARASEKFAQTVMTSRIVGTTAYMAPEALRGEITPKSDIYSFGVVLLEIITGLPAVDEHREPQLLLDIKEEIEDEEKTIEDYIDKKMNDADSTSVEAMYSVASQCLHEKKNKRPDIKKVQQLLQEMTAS
A general note: Fluorescence polarisation rises when a labelled molecule tumbles more slowly, as on binding a larger partner.
What is called IC50 is the concentration at which inhibition is half-maximal. Low values mean greater potency in that assay, high ones weaker potency in that assay. On to `Cn1cc(NC(=O)c2ccc3cnc(N[C@H]4CNC[C@H](F)C4)nn23)c(C(F)F)n1` [Example 165, N-[3-(difluoromethyl)-1-methyl-1H-pyrazol-4-yl]-2-{[(3R,5R)-5-fluoropiperidin-3-yl]amino}pyrrolo[2,1-f][1,2,4]triazine-7-carboxamide trifluoroacetate], for which the IC50 amounted to 1 nM. `Cn1cc(NC(=O)c2ccc3cnc(N4CC5CCC4CN5)nn23)c(C(F)F)n1` (stereo not shown) [Example 29, 2-(2,5-diazabicyclo[2.2.2]oct-2-yl)-N-[3-(difluoromethyl)-1-methyl-1H-pyrazol-4-yl]pyrrolo[2,1-f][1,2,4]triazine-7-carboxamide trifluoroacetate] came in with an IC50 of 7 nM. `O=C(Nc1ccsc1C(F)(F)F)c1ccc2cnc(N3C[C@@H]4CC[C@H]3CN4)nn12` (single isomer, unassigned) [Example 86, 2-[(1S,4S)- or (1R,4R)-2,5-diazabicyclo[2.2.2]oct-2-yl]-N-[2-(trifluoromethyl)thiophen-3-yl]pyrrolo[2,1-f][1,2,4]triazine-7-carboxamide trifluoroacetate] had an IC50 of 2270 nM.

As for `O=C(Nc1ccccc1C(F)(F)F)c1ccc2cnc(N3CCCNCC3)nn12` [Example 28, 2-(1,4-diazepan-1-yl)-N-[2-(trifluoromethyl)phenyl]-pyrrolo[2,1-f][1,2,4]triazine-7-carboxamide trifluoroacetate], it took 3980 nM to reach half-maximal inhibition (IC50). The compound `O=C(Nc1ccsc1Br)c1ccc2cnc(N3CCCNCC3)nn12` [Example 37, N-(2-bromothiophen-3-yl)-2-(1,4-diazepan-1-yl)pyrrolo[2,1-f][1,2,4]triazine-7-carboxamide trifluoroacetate] displayed a half-inhibitory concentration (IC50) of 1670 nM. `N#Cc1cscc1NC(=O)c1ccc2cnc(N[C@@H]3CCCNC3)nn12` [Example 145, N-(4-cyanothiophen-3-yl)-2-[(3R)-piperidin-3-ylamino]pyrrolo[2,1-f][1,2,4]triazine-7-carboxamide trifluoroacetate] registered an IC50 of 3 nM. On to `O=C(Nc1ccccc1Cl)c1ccc2cnc(N3CCCNCC3)nn12` [Example 39, N-(2-chlorophenyl)-2-(1,4-diazepan-1-yl)pyrrolo[2,1-f][1,2,4]triazine-7-carboxamide trifluoroacetate], for which half-maximal inhibition (IC50) was put at 228 nM. Take `Cn1cc(NC(=O)c2ccc3cnc(N[C@@H]4CNC[C@H](F)C4)nn23)c(C(F)F)n1` [Example 155, N-[3-(difluoromethyl)-1-methyl-1H-pyrazol-4-yl]-2-{[(3S,5R)-5-fluoropiperidin-3-yl]amino}pyrrolo[2,1-f][1,2,4]triazine-7-carboxamide]: the IC50 is 7 nM. `N#Cc1cscc1NC(=O)c1ccc2cnc(N3CCC[C@@H](N)C3)nn12` [Example 144, 2-[(3R)-3-aminopiperidin-1-yl]-N-(4-cyanothiophen-3-yl)pyrrolo[2,1-f][1,2,4]triazine-7-carboxamide trifluoroacetate] gave a concentration for half-maximal inhibition (IC50) of 18 nM.

In turn, `N[C@H]1CCCC[C@H]1Nc1ncc2ccc(C(=O)Nc3ccsc3Cl)n2n1` [Example 30, 2-{[(1R,2S)-2-aminocyclohexyl]amino}-N-(2-chlorothiophen-3-yl)pyrrolo[2,1-f][1,2,4]triazine-7-carboxamide trifluoroacetate] yielded an IC50 of 3 nM.
